Experiment [1] concerns the target His6-TEV-PDGFRβ (557-1016) (Homo sapiens (Human), UniProt P09619). Put plainly: PDGFRβ HTRF Assay. It is filed as biochemical. The note with it: read-out: PDGFR HTRF IC50. Here is the method:
Instrumentation: a. Compound liquid handling: LabCyte Echo; b. Reagent liquid handling: Thermo Scientific Multidrop Combi; c. BMG PHERAStar multilabel plate reader.
Protein Reagent: His6-TEV-PDGFRβ Protein Prep prepared at Accelagen.
(§1) II. Methods and Procedures
Assay buffer stock solution, contains 50 mM Hepes, 10 mM MgCl2, 1 mM EGTA, and 0.01% Brij-35, 0.01% ovalbumin, 2 mM DTT at pH 7.5, in molecular biology grade water. Store at room temperature.
DTT, 2 M in molecular biology grade water, store at −20° C. in aliquots.
Ovalbumin, 10% or 100 mg/mL, prepare fresh on experimental day.
PDGFRβ, 116 μM (PDGFRb_08 Prep 02), produced at Accelagen. Store at −80° C. in aliquots.
TK-biotin peptide, […] in molecular biology grade water, store at −20° C. in aliquots.
ATP, 100 mM in molecular biology grade water, store at −20° C. in aliquots.
HTRF KinEASE-TK kit: Allow the contents of the Cisbio kit to warm up to room temperature before use. This kit contains HTRF detection buffer, TK-Antibody labeled with Eu^3+-cryptate, TK-substrate biotin and Streptavidin-XL665.
TK Substrate-Biotin, reconstitute 500 μg lyopholized with 574 μL molecular biology grade water to prepare a 500 μM stock; After use, aliquot the rest and store at −20° C.
TK Antibody-Cryptate, reconstitute lyophilized with 1 mL of molecular biology grade water (100× solution) then add 99 mL detection buffer to prepare a ready to use TK-antibody-cryptate solution; the concentration of the TK-antibody-cryptate reagent is not known. After use, aliquot the rest and store at −20° C.
Streptavidin-XL665, reconstitute 3 mg lyophilized with 3 mL molecular biology grade water to prepare a 1 mg/mL or 16.67 μM stock; MW=60 kDa; After use, aliquot the rest and store at −20° C.
(§2) Freshly Prepared Solutions:
Assay buffer. Dilute 5× Kinase buffer 5-fold with molecular biology grade water and add DTT to 2 mM and ovalbumin to 0.1 mg/mL (or 0.01%).
2× protein solution. Make a working solution of […] PDGFRβ in assay buffer. Keep on ice until use to maintain enzyme stability.
2× substrate solution. Make a working solution of 1.6 mM ATP and 1 μM TK-substrate biotin peptide in assay buffer.
3× quench/detection solution. Make a working solution of 0.1875 μM SA-XL665 and the TK-antibody cryptate diluted by 12 of total quench/detection volume in assay buffer.
Keep final streptavidin/biotin ratio at 1 to 8.
Example of 3× quench/detection solution preparation: 8 mL total volume.
TK antibody-cryptate in detection buffer—4000 μL
The kinase reaction is stopped by the addition of the detection reagents which contain EDTA (detection step).
Assay in white ProxiPlate 384-well
Step 1. Dispensing inhibitors/DMSO and low control: Using the ECHO 555 acoustic dispenser, spot desired compound serial dilutions in DMSO, NEAT DMSO to represent the uninhibited enzyme control, and 10 μM final [imatinib] to the represent the 100% inhibited enzyme control
Step 2. PDGFRβ E+I pre-incubation: Add 2 μL 2× protein solution to columns 1-24 using the Multidrop Combi. Centrifuge at 1000 rpm for 1 min. Incubate 30 min at RT
Step 2. Enzymatic reaction: Add 2 μL substrate solution to columns 1-24 to initiate the reaction using the Multidrop Combi; cover/seal the assay plate to reduce evaporation. Centrifuge at 1000 rpm for 1 min. Incubate at room temperature for 3 hours.
Step 3. Quench/Detection: Add 2 μl 3× quench/detection solution to columns 1-24 using the Multidrop Combi; cover/seal the plate. Centrifuge 1 min 1000 rpm. Incubate at RT for 60 min. Read the plate in PHERAstar (or similar instrument) on HTRF setting at excitation 337 nm—dual emission—665/620 nm ratio.
(§3) III. Calculations and Formulas
HTRF ratio values calculated by the instrument (Ratio is acceptor counts/donor counts*10,000) is exported from the plate reader and used in data analysis. […] Assay statistics can include Robust Z′ and Signal to Background.
% Inhibition Calculation: Percent inhibition will be calculated for sample wells based on the equation: […]

The target of another experiment is PDGFRβ (Rattus norvegicus (Rat), UniProt Q05030). Description: PDGFRβ Cellular Assay (PDGFRb P-Y751 HTRF in A10 cells stimulated with PDGF-BB). Format: cell-based. The settings on record: PDGFR Cellular IC50. Here is the method: as §1
Cell Culture and Preparation: Cells are cultured according to ATCC procedure (5) with the addition of the antibiotic penicillin-streptomycin. If working from frozen, cells should be thawed according to ATCC procedure. Depending on the cell density of frozen vial, cells will need time to recover from thaw. An 80% confluent T75 flask should be enough for one 384 well plate.
Stock Solutions: Rat PDGFBB. A 100 ug/mL stock is prepared by reconstituting 50 ug in 500 uL of 4 mM HCl and 0.1% BSA. It can be stored for a month at 4° C., or aliquoted out and frozen in the −20/−80° C. to avoid multiple free-thaw cycles.
as §2
1× Cisbio cell lysis buffer. The cell lysis buffer is diluted 4-fold with molecular grade water. The blocking agent is then diluted 25-fold in the diluted lysis buffer.
Antibody solutions. Equal amounts d2 and cryptate antibody are diluted 20-fold in detection buffer.
Rat PDGFBB. A working stock of 100 ng/mL is created from the stock solution in 10% FBS culture media.
Step 1: Plating Cells: Media from the A10 cell flask is aspirated. The cells are rinsed with PBS and then trypsinized to disperse the cell layer. The cells are then pelleted are resuspended to 1.25e5 cells/mL. […] Plates are covered and placed in the incubator (37° C. 5% CO2) overnight to allow cells to adhere.
Step 2: Compound Dispense: Approximately 18 hours after plating, dispense 40 nL compound onto cells using Echo. Column 12 is the neutral control DMSO, column 24 is the inhibitor control 10 mM Imatinib (10 uM final assay concentration). The plate is returned to the incubator for 3 hours.
After 10 minutes the media is removed by flicking the plate.
Step 4: Cell lysis and antibody addition: 20 uL lysis buffer per well is added to the plate via Tempest. 5 uL antibody solution is added per well via the Tempest. The plate is placed on the shaker at 230 rpm for 1 hour at room temperature.
Step 5: Detection: The plate is read using the HTRF module on the BMG Pherastar. Data is analyzed using Genedata Screener.
as §3
% Inhibition: % Inhibition=(NC−sample)/(NC−PC)*100 where NC is the mean of negative control (reactions without inhibitor), and PC is the mean of positive control (10 μM imatinib).
IC50 values are determined from a 4-parameter fit, using the following equation: Y=Bottom+(Top−Bottom)/(1+10((Log IC50−X)*Hill slope)), where X=log10 of the compound concentration; top can be defined by PC; bottom defined by NC.

The target of the next experiment is VEGFR2, unphosphorylated (Homo sapiens (Human), UniProt P35968). Description: VEGFR ADP GLO Assay. It is filed as biochemical. As for the experimental part: as §1
Assay buffer stock contains 50 mM HEPES pH7.5, 10 mM MgCl2, 0.01% Brij-35, and 1 mM EGTA.
Unphosphorylated VEGFR2. […] Store at −80° C. in aliquots.
Sonicate 10 mg/ml Srctide solution for 10 minutes and then vacuum filter.
Freshly Prepared Solutions
2× kinase solution. Make a working solution of 10 nM unphosphorylated VEGFR2 in Assay buffer. Vacuum filter 2× kinase solution prior to running assay. Keep on ice until use.
2× substrate/ATP solution. Make a working solution of 2 mg/mL srctide and 2.4 mM ATP in Assay buffer. Keep on ice until use.
Step 1. Dispensing inhibitors/controls: Using Echo, dispense 10 nL/well compound serial dilutions in DMSO to columns 1-22 (in 384-well plates) or columns 1-44 (in 1536-well plates). Dilution series=11 pt, 3-fold dilutions. The top compound concentration in the source plate is 4 mM. The top compound concentration in the assay plate is 10 uM. Using Echo, dispense 10 nl/well DMSO to column 23 (in 384-well plates) or columns 45-47 (in 1536-well plates). […] These wells will serve as positive control wells.
Step 2. Pre-incubation of inhibitors with kinase: Add 2 μL/well 2× kinase solution. Centrifuge at 1000 rpm for 1 min. Incubate at room temperature for 30 min.
Step 3. Kinase cascade reaction: Add 2 μL/well 2× substrate/ATP solution to initiate kinase reactions. Centrifuge at 1000 rpm for 1 min. Incubate at room temperature for 180 min.
Final concentrations of components in the assay:
Step 4. Quench: Add 2 uL/well ADP Glo Reagent+0.05% CHAPS. Centrifuge at 1000 rpm for 1 min; Incubate at room temperature for one hour.
Step 5. Detection: Add 2 uL/well Kinase Detection Reagent+0.05% CHAPS. Centrifuge at 1000 rpm for 1 min; Incubate at room temperature for 1 hour; Read Luminescence on a plate reader.
as §3
IC50 values are determined from a 4-parameter fit, using the following equation: Y=Bottom+(Top−Bottom)/(1+10^(Log IC50-X)*Hill slope) where X=log10 of the compound concentration; top can be defined by PC; bottom defined by NC.

Structures are written as SMILES.

Sequence of VEGFR2, unphosphorylated (P35968 20-1356): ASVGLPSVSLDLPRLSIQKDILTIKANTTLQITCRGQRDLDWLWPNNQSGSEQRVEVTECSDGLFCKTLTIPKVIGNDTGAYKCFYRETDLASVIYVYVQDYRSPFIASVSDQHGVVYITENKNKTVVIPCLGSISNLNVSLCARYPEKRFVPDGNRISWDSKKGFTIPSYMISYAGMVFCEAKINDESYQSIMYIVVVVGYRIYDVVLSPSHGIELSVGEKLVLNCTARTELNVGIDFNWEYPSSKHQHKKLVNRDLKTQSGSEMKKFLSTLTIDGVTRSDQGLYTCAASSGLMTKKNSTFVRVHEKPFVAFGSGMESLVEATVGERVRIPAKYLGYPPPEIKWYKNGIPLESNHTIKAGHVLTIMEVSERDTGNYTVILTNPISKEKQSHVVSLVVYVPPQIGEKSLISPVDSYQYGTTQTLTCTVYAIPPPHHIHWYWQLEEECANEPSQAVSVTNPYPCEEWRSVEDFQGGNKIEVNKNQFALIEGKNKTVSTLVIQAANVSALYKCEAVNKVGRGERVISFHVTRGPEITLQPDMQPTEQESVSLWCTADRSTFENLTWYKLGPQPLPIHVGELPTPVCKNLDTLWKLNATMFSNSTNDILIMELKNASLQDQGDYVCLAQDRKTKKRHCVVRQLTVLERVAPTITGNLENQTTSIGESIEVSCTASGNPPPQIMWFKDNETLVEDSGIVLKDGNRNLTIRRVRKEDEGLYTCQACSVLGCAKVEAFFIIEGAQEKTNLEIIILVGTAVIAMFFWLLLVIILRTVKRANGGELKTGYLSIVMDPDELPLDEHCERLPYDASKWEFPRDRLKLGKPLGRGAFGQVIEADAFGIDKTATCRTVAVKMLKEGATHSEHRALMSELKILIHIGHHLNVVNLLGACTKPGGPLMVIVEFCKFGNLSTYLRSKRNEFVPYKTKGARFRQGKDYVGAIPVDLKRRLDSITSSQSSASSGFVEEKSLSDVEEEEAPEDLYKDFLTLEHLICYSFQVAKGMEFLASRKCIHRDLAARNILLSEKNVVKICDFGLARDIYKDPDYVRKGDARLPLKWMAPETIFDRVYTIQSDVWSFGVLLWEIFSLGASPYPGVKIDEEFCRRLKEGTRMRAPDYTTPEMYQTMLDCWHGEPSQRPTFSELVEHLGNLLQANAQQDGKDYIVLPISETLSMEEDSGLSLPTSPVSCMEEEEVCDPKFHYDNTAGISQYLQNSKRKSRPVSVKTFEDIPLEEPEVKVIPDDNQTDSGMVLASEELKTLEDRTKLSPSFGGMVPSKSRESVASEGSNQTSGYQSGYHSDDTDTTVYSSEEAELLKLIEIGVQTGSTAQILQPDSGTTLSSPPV
Sequence of His6-TEV-PDGFRβ (557-1016) (P09619 557-1016): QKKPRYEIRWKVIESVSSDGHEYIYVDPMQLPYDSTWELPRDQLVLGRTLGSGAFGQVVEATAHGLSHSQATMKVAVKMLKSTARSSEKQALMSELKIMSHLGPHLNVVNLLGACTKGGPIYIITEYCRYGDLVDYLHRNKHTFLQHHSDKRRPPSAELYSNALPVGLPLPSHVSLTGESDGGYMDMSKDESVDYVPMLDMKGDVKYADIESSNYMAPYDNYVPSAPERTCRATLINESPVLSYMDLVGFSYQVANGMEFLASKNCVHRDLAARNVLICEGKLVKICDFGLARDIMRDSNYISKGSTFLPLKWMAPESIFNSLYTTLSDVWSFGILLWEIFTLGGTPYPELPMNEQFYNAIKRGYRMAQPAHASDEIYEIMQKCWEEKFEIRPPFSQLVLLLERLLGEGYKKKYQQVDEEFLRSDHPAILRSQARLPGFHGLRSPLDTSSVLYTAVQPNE
Sequence of PDGFRβ (Q05030 32-1097): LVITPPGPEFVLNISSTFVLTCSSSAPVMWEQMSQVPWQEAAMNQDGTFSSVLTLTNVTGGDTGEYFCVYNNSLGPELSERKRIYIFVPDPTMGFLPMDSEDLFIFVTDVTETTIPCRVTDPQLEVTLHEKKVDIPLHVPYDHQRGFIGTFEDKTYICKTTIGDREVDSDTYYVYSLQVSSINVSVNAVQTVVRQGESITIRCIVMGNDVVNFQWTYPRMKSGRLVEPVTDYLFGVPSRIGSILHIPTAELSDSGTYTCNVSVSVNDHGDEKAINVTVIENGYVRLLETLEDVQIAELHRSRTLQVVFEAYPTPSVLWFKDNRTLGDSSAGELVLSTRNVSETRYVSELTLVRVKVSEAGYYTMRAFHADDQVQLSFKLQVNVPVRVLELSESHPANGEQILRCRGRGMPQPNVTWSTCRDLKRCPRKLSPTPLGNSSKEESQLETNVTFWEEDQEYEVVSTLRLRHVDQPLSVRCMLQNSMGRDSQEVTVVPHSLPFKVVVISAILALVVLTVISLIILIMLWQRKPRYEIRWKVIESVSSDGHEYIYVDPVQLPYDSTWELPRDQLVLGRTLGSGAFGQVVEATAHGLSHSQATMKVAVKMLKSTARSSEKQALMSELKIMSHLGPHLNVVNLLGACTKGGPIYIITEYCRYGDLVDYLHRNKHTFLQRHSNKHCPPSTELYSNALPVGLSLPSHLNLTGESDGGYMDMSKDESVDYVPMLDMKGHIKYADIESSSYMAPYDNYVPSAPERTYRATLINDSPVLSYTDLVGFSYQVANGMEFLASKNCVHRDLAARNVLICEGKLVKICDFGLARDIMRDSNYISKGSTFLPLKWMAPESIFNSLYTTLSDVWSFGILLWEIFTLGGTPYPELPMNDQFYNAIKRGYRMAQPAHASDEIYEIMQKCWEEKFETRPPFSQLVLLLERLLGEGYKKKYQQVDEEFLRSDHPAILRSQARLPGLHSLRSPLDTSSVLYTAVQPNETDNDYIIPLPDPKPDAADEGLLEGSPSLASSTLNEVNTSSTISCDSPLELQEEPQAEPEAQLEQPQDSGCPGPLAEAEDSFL

As to `Cc1cc(C(=O)NCCN2CCCC23CCCC3)sc1NC(=O)c1cnn2cc(-c3cnn(C)c3)sc12` [Example 196, N-(5-((2-(1-azaspiro[4.4]nonan-1-yl)ethyl)carbamoyl)-3-methylthiophen-2-yl)-2-(1-methyl-1H-pyrazol-4-yl)pyrazolo[5,1-b]thiazole-7-carboxamide], the IC50 is 1.4 nM in experiment [1]; 85.8 nM at PDGFRβ; more than 7500 nM on VEGFR2, unphosphorylated.

As for `Cc1ncc(NC(=O)CN2CC(C)(C)C2)cc1NC(=O)c1cnn2cc(-c3c(C)noc3C)sc12` [Example 364, N-(5-(2-(3,3-dimethylazetidin-1-yl)acetamido)-2-methylpyridin-3-yl)-2-(3,5-dimethylisoxazol-4-yl)pyrazolo[5,1-b]thiazole-7-carboxamide], the IC50 was 0.8 nM in experiment [1]; 10.3 nM against PDGFRβ; more than 7500 nM against VEGFR2, unphosphorylated.
